Assay results reported in patent EP0562731A1, “Substituted pyridinesulfonamide compounds or their salts, process for preparing the same, and herbicides containing the same” (ISHIHARA SANGYO KAISHA, Ltd., priority 1992, dated 1993).

Key:
Test in all cases: Test Example 1: foliar application pot test, visual growth control rating
Type in all cases: in vivo
Parameters in all cases: key: 1: the same as in an untreated plot; 10: perfect growth control
Conditions in all cases: wettable powder, observed 20 to 31 days after application
[1] = system: wheat (Triticum)
Source text: (§1) 1/1,500 are [are (a) = 100 m²] pots were filled with upland farming soil, which in the pots was then sown with a variety of plants. The plants grown will be enumerated below.
(§2) When each plant reached a given growth stage (a 1.2- to 3.0-leaf stage for rice, primary leaf to a 0.7-leaf stage for soybean, 2.1- to 3.6-leaf stage for corn, cotyledon to 0.7-leaf stage for cotton, 2.0- to 3.0-leaf stage for wheat, 0.3- to 3.4-leaf stage for cocklebur, 0.3- to 1.6-leaf stage for morning glory, 0.1- to 1.3-leaf stage for prickly sida, 0.1- to 1.3-leaf stage for slender amaranth, 1.5- to 3.2-leaf stage for barnyard glass, and 1.2- to 3.0-leaf stage for large crabgrass), a predetermined amount of the herbicide of the present invention in the form of a wettable powder, weighed out, diluted with 5 ℓ/a of water and admixed with 0.2 or 0.1 vol%, based on the resulting composition, of an agricultural spreader, was foliarly applied to the plant with a small spray gun. The progress of growth of the plant was visually observed 20 to 31 days after the foliar application to evaluate the degree of growth control according to 10 ratings (1: the same as in an untreated plot - 10: perfect growth control).

[2] = system: slender amaranth (Amaranthus viridis)
Source text: as §1, §2

[3] = system: large crabgrass (Digitaria adscendens)
Source text: as §1, §2

[4] = system: prickly sida (Sida spinosa)
Source text: as §1, §2

[5] = system: morning glory (Ipomoea purpurea)
Source text: as §1, §2

[6] = system: cocklebur (Xanthium strumarium)
Source text: as §1, §2

[7] = system: barnyard grass (Echinochloa crus-galli)
Source text: as §1, §2

[8] = system: rice (Oryza sativa)
Source text: as §1, §2

[9] = system: corn (Zea mays)
Source text: as §1, §2

[10] = system: soybean (Glycine max)
Source text: as §1, §2

SMILES | degree of growth control, TR ([1]; 1.25 g/a active ingredient) | degree of growth control, AM ([2]; 1.25 g/a active ingredient) | degree of growth control, DI ([3]; 0.31 g/a active ingredient) | degree of growth control, DI ([3]; 1.25 g/a active ingredient) | degree of growth control, IP ([5]; 1.25 g/a active ingredient) | degree of growth control, XA ([6]; 1.25 g/a active ingredient) | degree of growth control, EC ([7]; 1.25 g/a active ingredient) | degree of growth control, OR ([8]; 1.25 g/a active ingredient) | degree of growth control, ZE ([9]; 1.25 g/a active ingredient) | degree of growth control, IP ([5]; 0.31 g/a active ingredient) | degree of growth control, XA ([6]; 0.31 g/a active ingredient) | degree of growth control, EC ([7]; 0.31 g/a active ingredient) | degree of growth control, ZE ([9]; 0.31 g/a active ingredient) | further results
CCN(c1cccc(S(=O)(=O)NC(=O)Nc2nc(C)nc(OC)n2)n1)S(=O)(=O)C(C)C [Compound No. 1, 6-[(N-ethyl-N-isopropylsulfonyl)amino]-N-[[(4-methoxy-6-methyltriazin-2-yl)amino]carbonyl]-2-pyridinesulfonamide] | 8 | 10 | 8 | 8 |  |  |  |  |  |  |  |  |  | degree of growth control, TR ([1]; 0.31 g/a active ingredient): 8; degree of growth control, AM ([2]; 0.31 g/a active ingredient): 10
COc1nc(C)nc(NC(=O)NS(=O)(=O)c2cccc(N(CC(C)C)S(C)(=O)=O)n2)n1 [compound 33] | 3 | 6 |  | 6 | 4 | 3 | 3 | 6 | 2 |  |  |  |  | degree of growth control, SI ([4]; 1.25 g/a active ingredient): 3; degree of growth control, GL ([10]; 1.25 g/a active ingredient): 3
CCCCS(=O)(=O)N(CCC)c1cccc(S(=O)(=O)NC(=O)Nc2nc(C)nc(OC)n2)n1 [compound 42] | 4 | 10 |  | 5 | 4 | 6 | 3 | 6 | 3 |  |  |  |  | degree of growth control, SI ([4]; 1.25 g/a active ingredient): 3; degree of growth control, GL ([10]; 1.25 g/a active ingredient): 4
CCC(C)N(c1cccc(S(=O)(=O)NC(=O)Nc2nc(C)nc(OC)n2)n1)S(=O)(=O)CC(C)C (racemic) [compound 80] |  |  | 2 | 2 | 5 | 6 |  |  |  | 5 | 6 |  |  | degree of growth control, SI ([4]; 0.31 g/a active ingredient): 3; degree of growth control, SI ([4]; 1.25 g/a active ingredient): 3
CCN(c1cccc(S(=O)(=O)NC(=O)Nc2nc(C)nc(OC)n2)n1)S(=O)(=O)C(Cl)Cl [compound 56] | 10 |  | 10 | 10 |  | 10 | 10 | 9 | 10 |  | 10 | 10 | 10 | degree of growth control, TR ([1]; 0.31 g/a active ingredient): 10; degree of growth control, OR ([8]; 0.31 g/a active ingredient): 9
CCCN(c1cccc(S(=O)(=O)NC(=O)Nc2nc(C)nc(OC)n2)n1)S(=O)(=O)C(C)Cl (racemic) [compound 86] |  |  |  |  | 10 |  | 10 |  | 10 | 10 |  | 10 | 10 | 
CCN(c1cccc(S(=O)(=O)NC(=O)Nc2nc(C)nc(OC)n2)n1)S(=O)(=O)C(C)Br (racemic) [compound 78] |  |  |  |  | 10 | 10 | 10 |  | 10 | 10 | 10 | 10 | 10 | 
CCN(c1cccc(S(=O)(=O)NC(=O)Nc2nc(OC)nc(OC)n2)n1)S(=O)(=O)C(Cl)Cl [Compound No. 57, 6-[(N-dichloromethylsulfonyl-N-ethyl)amino]-N-[[(4,6-dimethoxytriazine-2-yl)amino]carbonyl]-2-pyridinesulfonamide] | 6 |  | 9 | 9 | 10 | 10 |  |  |  | 10 | 10 |  |  | degree of growth control, TR ([1]; 0.31 g/a active ingredient): 6
CCN(c1cccc(S(=O)(=O)NC(=O)Nc2nc(C)nc(OC)n2)n1)S(=O)(=O)C(Cl)(Cl)Cl [compound 91] | 9 |  |  |  | 9 | 10 |  | 9 |  | 9 | 10 |  |  | degree of growth control, TR ([1]; 0.31 g/a active ingredient): 9; degree of growth control, OR ([8]; 0.31 g/a active ingredient): 9
CCN(c1cccc(S(=O)(=O)NC(=O)Nc2nc(C)nc(OC)n2)n1)S(=O)(=O)C(C)F (racemic) [compound 58] | 2 |  | 7 | 7 |  |  |  |  |  |  |  |  |  | degree of growth control, TR ([1]; 0.31 g/a active ingredient): 2; degree of growth control, GL ([10]; 0.31 g/a active ingredient): 1; degree of growth control, GL ([10]; 1.25 g/a active ingredient): 1
CCCCS(=O)(=O)N(c1cccc(S(=O)(=O)NC(=O)Nc2nc(C)nc(OC)n2)n1)C(C)CC (racemic) [compound 84] |  |  |  |  | 6 |  | 5 |  |  | 6 |  | 5 |  | 
CCN(c1cccc(S(=O)(=O)NC(=O)Nc2nc(OC)nc(OC)n2)n1)S(=O)(=O)C(C)C [Compound No. 2, 6-[(N-ethyl-N-isopropylsulfonyl)amino]-N-[[(4,6-dimethoxytriazin-2-yl)amino]carbonyl]-2-pyridinesulfonamide] |  | 10 |  |  |  | 10 |  |  |  |  | 10 |  |  | degree of growth control, AM ([2]; 0.31 g/a active ingredient): 10
COc1nc(C)nc(NC(=O)NS(=O)(=O)c2cccc(N(C(C)C)S(=O)(=O)C(C)Cl)n2)n1 (racemic) [compound 93] |  | 9 |  |  | 9 | 10 |  | 9 |  | 9 | 10 |  |  | degree of growth control, AM ([2]; 0.31 g/a active ingredient): 9; degree of growth control, OR ([8]; 0.31 g/a active ingredient): 9
CCN(c1cccc(S(=O)(=O)NC(=O)Nc2nc(C)nc(OC)n2)n1)S(=O)(=O)C(Br)(Br)Br [compound 90] |  |  | 6 | 6 |  | 10 | 10 |  |  |  | 10 | 10 |  | degree of growth control, SI ([4]; 0.31 g/a active ingredient): 6; degree of growth control, SI ([4]; 1.25 g/a active ingredient): 6
COc1nc(C)nc(NC(=O)NS(=O)(=O)c2cccc(N(C)S(=O)(=O)C(C)Cl)n2)n1 (racemic) [compound 85] |  |  |  |  |  |  | 10 |  | 10 |  |  | 10 | 10 | 
CCN(c1cccc(S(=O)(=O)NC(=O)Nc2nc(C)nc(OC)n2)n1)S(=O)(=O)C(C)(C)Cl [compound 87] |  |  |  |  |  | 10 |  |  |  |  | 10 |  |  | 
CCCN(c1cccc(S(=O)(=O)NC(=O)Nc2nc(OC)nc(OC)n2)n1)S(=O)(=O)C(C)C [Compound No. 5] |  |  |  |  |  | 10 | 10 |  |  |  | 10 | 10 |  | 
COc1nc(C)nc(NC(=O)NS(=O)(=O)c2cccc(N(OC)S(=O)(=O)C(C)C)n2)n1 [compound 41] |  |  |  |  |  |  | 10 |  | 10 |  |  | 10 | 10 | 
COc1nc(C)nc(NC(=O)NS(=O)(=O)c2cccc(N(C)S(=O)(=O)C(Br)(Br)Br)n2)n1 [compound 89] |  |  | 7 | 7 |  | 10 |  |  |  |  | 10 |  |  | 
CCN(c1cccc(S(=O)(=O)NC(=O)Nc2nc(OC)nc(OC)n2)n1)S(=O)(=O)C(C)Cl (racemic) [Compound No. 55, 6-[[N-(1-chloroethylsulfonyl)-N-ethyl]amino]-N-[[(4,6-dimethoxytriazin-2-yl)amino]carbonyl]-2-pyridinesulfonamide] |  | 6 |  |  |  | 10 | 10 | 9 | 10 |  | 10 | 10 | 10 | degree of growth control, SI ([4]; 0.31 g/a active ingredient): 6; degree of growth control, SI ([4]; 1.25 g/a active ingredient): 6; degree of growth control, AM ([2]; 0.31 g/a active ingredient): 6; degree of growth control, OR ([8]; 0.31 g/a active ingredient): 9
